Test system: patients with high output shock
Conditions: in vivo
Procedure: The investigators, clinical support staff, the patients and their families were unaware of the treatment assignment for the duration of the study.
Enrolled patients were randomized to receive the Study Drug infusion in normal saline calculated to run at a drip rate corresponding to an initial concentration of 20 ng/kg/min, plus the standard-of-care treatment for high output shock. The Study Drug was prepared in an opaque cellophane bag, the contents of which were unknown to the investigators, nurses or anyone else taking direct care of the patient. The Study Drug was administered for a total of 6 hours, with dose (and corresponding drip rate) adjustments made hourly. Study Drug dose adjustments were determined per a pre-specified protocol, based on the concomitant requirements of standard-of-care therapy (in all cases, norepinephrine infusion plus vasopressin, epinephrine and/or phenylephrine infusions) needed to maintain a mean arterial pressure (MAP) at or above 65 mm Hg, which is the standard practice at our institution. […] At the end of 6 hours, the Study Drug infusion was titrated off by being halved every 10 minutes until the Study Drug infusion dose was below 5 ng/kg/min, after which it was discontinued.
A small cohort of patients was analyzed, consistent with similar studies of this nature. […] An independent data and safety monitor (DSM) was assigned and reviewed all adverse events.

`CC[C@H](C)[C@H](NC(=O)[C@H](Cc1ccc(O)cc1)NC(=O)[C@@H](NC(=O)[C@H](CCCNC(=N)N)NC(=O)[C@@H](N)CC(=O)O)C(C)C)C(=O)N[C@@H](Cc1cnc[nH]1)C(=O)N1CCC[C@H]1C(=O)N[C@@H](Cc1ccccc1)C(=O)O` [ATII, angiotensin II] was tested. Which “Adverse events: Acidosis” value did it give?
Its value is 2.

And the “Adverse events: Atrial Fibrillation” value?
The value was 2.

What about the “Adverse events: Blood or lymphatic disorders” value of the same compound?
The value was 3.

And the “Adverse events: Cardiac disorders” value?
Its value is 7.

What about the “Adverse events: Decreased urine output” value of the same compound?
Its value is 3.

And the “Adverse events: Hypertension” value?
The value was 2.

And the “Adverse events: Hypotension” value?
Its value is 2.

And the “Adverse events: Metabolic disorders” value?
The value was 11.

And the “Adverse events: Other disorders” value?
Its value is 5.

And the “Adverse events: Renal disorders” value?
The value was 6.

What about the “Adverse events: Respiratory disorders” value of the same compound?
The value was 3.

What about the “Adverse events: Wheezing” value of the same compound?
The value was 1.

What about the “Adverse events: Worsening AKI” value of the same compound?
The value was 0.

What about the “Adverse events: Worsening MOSF” value of the same compound?
Its value is 2.

What about the “Adverse events: Worsening respiratory failure” value of the same compound?
The value was 1.

What about the “hypertension, patients receiving ATII in whom it occurred” value of the same compound?
The value was 20%.

And the “patients in whom ATII infusion was discontinued due to hypertension” value?
Its value is “^⋄ATII infusion was discontinued in two patients due to hypertension”.

What about the tolerability of the same compound?
Its tolerability is “well-tolerated”.
